Assay results from US8758782B2, “Excipient preservatives and pharmaceutical compositions comprised thereof” (Galderma Research & Development, priority 2007, dated 2014).

What was measured:
Candida albicans = conditions: cited from earlier work
Aspergillus niger = conditions: cited from earlier work
[1] = test system: Staphylococcus aureus, reference ATCC 6538; assay: Preservative Efficacy Test (PET), Staphylococcus aureus; assay type: cell-based; parameters: key to Gram+ bacterium, Staphylococcus aureus: −: No European pharmacopoeia criterion or USP criterion is met; +: for the coli: the USP criteria are met; ++: the European pharmacopoeia criteria A are met; conditions: additive in standard emulsion
Source text: (§1) A particular problem that must be solved by the invention is that of effectively protecting a pharmaceutical topical composition while at the same time meeting the criteria required by the European and U.S. pharmacopoeias. This is because, since the purpose of the pharmaceutical composition is to become a pharmaceutical product with a marketing authorization, it is imperative for the composition according to the invention to meet these criteria. In order to verify this point and to determine the antimicrobial action of the various mixtures of excipients according to the invention, a test protocol, known as the PET (Preservative Efficacy Test), exists. The PET comprises artificially inoculating the compositions with a known number of microorganisms, and then determining the decrease in the latter in the compositions tested, at given times. The protocol of this test is set up in order to abide by the recommendations of the European and U.S. pharmacopoeias. […] The mixture of excipients as preservatives, described herein, should therefore meet the criteria of these pharmacopoeias in the PET. This test comprises artificially contaminating aliquots of formulation by means of a calibrated inoculum of specific microorganisms and incubating the same at precise temperatures. Samples are taken from the contaminated aliquots at given time intervals in order to count the microorganisms. Bacteria: • Pseudomonas aeruginosa, reference ATCC 9027; NCIMB 8626; CIP 82.118. • Staphylococcus aureus, reference ATCC 6538; NCTC 10788; NCIMB 9518; CIP 4.83. Bacteria: • Escherichia coli, reference ATCC 8739. • Pseudomonas aeruginosa, reference ATCC 9027. • Staphylococcus aureus, reference ATCC 6538.

[2] = test system: Pseudomonas aeruginosa, reference ATCC 9027; assay: Preservative Efficacy Test (PET), Pseudomonas aeruginosa; assay type: cell-based; parameters: key to Gram− bacterium, Pseudomonas aeruginosa: −: No European pharmacopoeia criterion or USP criterion is met; +: for the coli: the USP criteria are met; ++: the European pharmacopoeia criteria A are met; conditions: additive in standard emulsion
Source text: as §1

[3] = test system: Candida albicans, reference ATCC 10231; assay: Preservative Efficacy Test (PET), Candida albicans; assay type: cell-based; parameters: key to Yeast, Candida albicans: −: No European pharmacopoeia criterion or USP criterion is met; +: for the coli: the USP criteria are met; ++: the European pharmacopoeia criteria A are met; conditions: additive in standard emulsion
Source text: (§2) A particular problem that must be solved by the invention is that of effectively protecting a pharmaceutical topical composition while at the same time meeting the criteria required by the European and U.S. pharmacopoeias. This is because, since the purpose of the pharmaceutical composition is to become a pharmaceutical product with a marketing authorization, it is imperative for the composition according to the invention to meet these criteria. In order to verify this point and to determine the antimicrobial action of the various mixtures of excipients according to the invention, a test protocol, known as the PET (Preservative Efficacy Test), exists. The PET comprises artificially inoculating the compositions with a known number of microorganisms, and then determining the decrease in the latter in the compositions tested, at given times. The protocol of this test is set up in order to abide by the recommendations of the European and U.S. pharmacopoeias. […] The mixture of excipients as preservatives, described herein, should therefore meet the criteria of these pharmacopoeias in the PET. This test comprises artificially contaminating aliquots of formulation by means of a calibrated inoculum of specific microorganisms and incubating the same at precise temperatures. Samples are taken from the contaminated aliquots at given time intervals in order to count the microorganisms. Fungi: • Candida albicans, reference ATCC 10231; NCPF 3179; IP 48.72. • Aspergillus niger, reference ATCC 16404; IMI 149007; IP 1431.83. Fungi: • Candida albicans, reference ATCC 10231. • Aspergillus niger, reference ATCC 16404.

[4] = test system: Aspergillus niger, reference ATCC 16404; assay: Preservative Efficacy Test (PET), Aspergillus niger; assay type: cell-based; parameters: key to Moulds, Aspergillus Niger: −: No European pharmacopoeia criterion or USP criterion is met; +: for the coli: the USP criteria are met; ++: the European pharmacopoeia criteria A are met; conditions: additive in standard emulsion at its given % (EDTA 0.15, citric acid 2, sodium ascorbate 2, tocopherol 0.05, BHT 1, propyl gallate 0.1, ascorbyl palmitate 1)
Source text: as §2

[5] = pH of the emulsion containing the additive; assay type: physicochemical; conditions: standard emulsion with 2% citric acid
[6] = test system: Bacteria and fungi (Escherichia coli, Pseudomonas aeruginosa, Staphylococcus aureus, Candida albicans, Aspergillus niger); assay: PET, overall compliance with European and U.S. pharmacopoeia criteria; assay type: cell-based
Source text: A particular problem that must be solved by the invention is that of effectively protecting a pharmaceutical topical composition while at the same time meeting the criteria required by the European and U.S. pharmacopoeias. This is because, since the purpose of the pharmaceutical composition is to become a pharmaceutical product with a marketing authorization, it is imperative for the composition according to the invention to meet these criteria. In order to verify this point and to determine the antimicrobial action of the various mixtures of excipients according to the invention, a test protocol, known as the PET (Preservative Efficacy Test), exists. The PET comprises artificially inoculating the compositions with a known number of microorganisms, and then determining the decrease in the latter in the compositions tested, at given times. The protocol of this test is set up in order to abide by the recommendations of the European and U.S. pharmacopoeias. The test and also the recommendations of the European and U.S. pharmacopoeias are described in Example 1 to follow. The mixture of excipients as preservatives, described herein, should therefore meet the criteria of these pharmacopoeias in the PET.
This test comprises artificially contaminating aliquots of formulation by means of a calibrated inoculum of specific microorganisms and incubating the same at precise temperatures. Samples are taken from the contaminated aliquots at given time intervals in order to count the microorganisms.
It also makes it obligatory to study the reductions in population of the microorganisms introduced into the formulation according to two acceptability criteria.
Since the A criteria are the most strict, it are […] generally required that they be met.
In justified cases, when the A criteria cannot be complied with, for example owing to an increase in the risk of adverse reactions, the B criteria, which are less drastic, apply.
NI (Non-Increase) signifies that there must not be an increase in the number of microorganisms.
It imposes logarithmic reductions in the population of microorganisms which are different than that of the European pharmacopoeia.

[7] = test system: Escherichia coli, reference ATCC 8739; assay: Preservative Efficacy Test (PET), Escherichia coli; assay type: cell-based; parameters: key to Gram− bacterium, Esoherichia coli: −: No European pharmacopoeia criterion or USP criterion is met; +: for the coli: the USP criteria are met; ++: the European pharmacopoeia criteria A are met; conditions: additive in standard emulsion
Source text: as §1, with “•” for “• Pseudomonas aeruginosa, reference ATCC 9027; NCIMB 8626; CIP 82.118. • Staphylococcus aureus, reference ATCC 6538; NCTC 10788; NCIMB 9518; CIP 4.83. Bacteria: •”

microorganisms = conditions: J. J. Kabara; cited from earlier work

## CCCOC(=O)c1ccc(O)cc1 [propylparaben]
Candida albicans
  Concentration that makes it possible to inhibit Candida albicans: 250 ppm
Aspergillus niger
  Concentration that makes it possible to inhibit Aspergillus niger: 250 ppm

## O=C(O)CC(O)(CC(=O)O)C(=O)O [Citric acid]
[1]
  Gram+ bacterium, Staphylococcus aureus: ++
[2]
  Gram− bacterium, Pseudomonas aeruginosa: ++
[3]
  Action on Candida albicans: inhibits
  Yeast, Candida albicans: ++
[4]
  Moulds, Aspergillus Niger: −
[5]
  pH: 2.04
[6]; additive in standard emulsion
  Efficacy on the microorganisms as a whole / spectrum of efficacy: bactericidal
[7]
  Gram− bacterium, Esoherichia coli: +

## CCO [ethanol]
[6]; ethanol/water, bacteria
  Ethanol concentration in the aqueous mixture from which the bactericidal action meets European pharmacopoeia criteria A and the USP criteria: ≥ 15%
[6]; ethanol/water, fungi
  Ethanol concentration at which the fungicidal action meets the requirements for all the pharmacopoeias: 25%
microorganisms
  Ethanol concentration starting from which proliferation of microorganisms can be prevented: ≥ 25 % (v/v)
